Results: patent US4435385A, “N-Acyl-polypeptides and processes for the production thereof” (Sandoz Ltd., priority 1981, dated 1984)

System: gastric secretion
Experiment: TEST II: pentagastrin-stimulated gastric secretion in pylorus-ligated rats
Type: in vivo, rat
Conditions: male rats, i.m., 100 μg/kg pentagastrin s.c., 30 mins; dose for 50% inhibition vs untreated controls
Procedure: Male rats (220-280 g) are kept in the laboratory in individual cages for several days (14 hours light/day) with 48 hours fasting (but free access to water) immediately prior to the experiment. At the start of the experiment the pylorus is ligated under ether anaesthesia and 100 μg/kg pentagastrin are injected s.c. to stimulate gastric secretion. The test compounds are injected simultaneously i.m. 30 mins. later the animals are sacrificed, the volume of gastric juice measured and the acid concentration estimated (titration with thymol blue). The acid output is calculated and the percent inhibition estimated in relation to untreated controls.

C[C@H](N)C(=O)NCC(=O)N[C@H]1CSSC[C@@H](C(=O)O)NC(=O)[C@H](CO)NC(=O)[C@H]([C@@H](C)O)NC(=O)[C@H](Cc2ccccc2)NC(=O)[C@H]([C@@H](C)O)NC(=O)[C@H](CCCCN)NC(=O)[C@H](Cc2c[nH]c3ccccc23)NC(=O)[C@H](Cc2ccccc2)NC(=O)[C@H](Cc2ccccc2)NC(=O)[C@H](CC(N)=O)NC(=O)[C@H](CCCCN)NC1=O [somatostatin]
ID50 in TEST II for acid concentration: 0.035 mg/kg
